Here are results for 2 compounds from article PMC8786932, “Bicyclic azetidines target acute and chronic stages of Toxoplasma gondii by inhibiting parasite phenylalanyl t-RNA synthetase” (Nature Communications, 2022).

A word on the IC50: it is the concentration needed to halve the response being measured.

Where “and” joins values, the source holds several entries; their conditions need not be identical. Equal values may be shown once.

The target of series [1] is T1, recombinant wild-type TgPheRS (Toxoplasma gondii, UniProt A0A125YPN6).
T1 sequence (A0A125YPN6 1-525): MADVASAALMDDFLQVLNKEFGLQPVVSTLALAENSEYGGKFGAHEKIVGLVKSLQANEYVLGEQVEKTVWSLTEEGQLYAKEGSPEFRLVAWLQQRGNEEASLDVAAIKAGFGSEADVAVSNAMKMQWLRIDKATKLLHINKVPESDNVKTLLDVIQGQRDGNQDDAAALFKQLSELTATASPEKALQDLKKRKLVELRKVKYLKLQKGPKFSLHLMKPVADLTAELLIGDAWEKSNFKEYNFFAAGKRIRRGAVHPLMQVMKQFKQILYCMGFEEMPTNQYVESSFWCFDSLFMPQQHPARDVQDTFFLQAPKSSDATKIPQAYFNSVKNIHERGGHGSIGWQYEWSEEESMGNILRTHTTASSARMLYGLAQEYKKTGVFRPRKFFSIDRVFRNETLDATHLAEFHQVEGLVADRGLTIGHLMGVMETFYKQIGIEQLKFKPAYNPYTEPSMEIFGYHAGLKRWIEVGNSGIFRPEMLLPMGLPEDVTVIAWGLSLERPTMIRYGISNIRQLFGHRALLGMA
T1 sequence (S8EZ50 1-675 partner): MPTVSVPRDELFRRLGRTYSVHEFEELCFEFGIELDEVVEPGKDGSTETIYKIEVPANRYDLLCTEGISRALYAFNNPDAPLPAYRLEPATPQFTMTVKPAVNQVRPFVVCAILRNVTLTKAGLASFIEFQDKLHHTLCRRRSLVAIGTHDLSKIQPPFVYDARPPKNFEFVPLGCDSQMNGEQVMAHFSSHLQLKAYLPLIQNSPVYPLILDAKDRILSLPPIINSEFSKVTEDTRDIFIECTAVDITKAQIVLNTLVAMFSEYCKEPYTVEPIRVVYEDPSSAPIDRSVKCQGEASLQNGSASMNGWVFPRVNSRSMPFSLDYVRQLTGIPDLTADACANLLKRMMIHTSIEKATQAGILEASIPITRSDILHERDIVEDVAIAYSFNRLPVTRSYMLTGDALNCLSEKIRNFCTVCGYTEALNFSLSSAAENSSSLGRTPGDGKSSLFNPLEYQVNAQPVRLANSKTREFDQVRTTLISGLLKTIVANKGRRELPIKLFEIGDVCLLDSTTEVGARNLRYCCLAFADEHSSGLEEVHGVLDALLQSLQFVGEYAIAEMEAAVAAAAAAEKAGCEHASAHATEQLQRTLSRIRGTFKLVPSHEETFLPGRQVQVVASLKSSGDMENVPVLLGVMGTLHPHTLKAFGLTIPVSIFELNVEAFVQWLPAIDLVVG
Description: Malachite green aminoacylation enzyme assay, wild-type TgPheRS. Type of series: biochemical. The following applies: for Tg PheRS enzyme assay raw signal: replicates.

The target in series [2] is TgPheRS[V262A] (Toxoplasma gondii, UniProt A0A125YPN6, V262A). Description: Enzyme assay, TgPheRS V262A. Type of series: biochemical. Conditions: Table S4, V262A; read-out: IC50 (enzyme inhibition).
Series [3] concerns the target T2, TgPheRS[M484I] (Toxoplasma gondii, UniProt A0A125YPN6, M484I).
T2 sequence (A0A125YPN6 1-525 M484I): T1 sequence (A0A125YPN6 1-525)
T2 sequence (S8EZ50 1-675 partner): T1 sequence (S8EZ50 1-675 partner)
Kind of series: Enzyme assay, TgPheRS M484I. Conditions: for enzyme assay readout (raw): M484I. Type of series: biochemical.

For series [4] the following is noted: 30 mg/kg oral vs 10 mg/kg.
In series [5] the test system is HFF (primary human foreskin fibroblast). Description: in vitro. The class given is cell-based. The following applies: EC50 host cell/EC50 T. gondii. As for the experimental part: For the toxicity screen, compounds were tested in 96-well plates using all the wells as no edge affect was observed. Compounds were diluted to 40 μM (2x concentration in 10% DMEM, 0.4% DMSO) before step-wise, 3-fold dilution in 10% DMEM to create 10-dose series (20 μM to 0.001 μM). Host cells were plated in black, μ-Clear 96-well plates (Greiner Bio-One). We compared several lineages including HepG2 (human hepatocellular carcinoma (ATCC-HB-8065)), THP-1 (human monocytic tumor line), SH-SY5Y (human neuroblastoma (ATCC CRL-2266)), A549 (human lung carcinoma (ATCC CRM-CCL-185)) and Caco-2 (human intestinal adenocarcinoma (ATCC HTB-37)) and HFF (primary human foreskin fibroblast) obtained from the laboratory of John Boothroyd at Stanford University. Cells were maintained in culture media according to the formulations recommended by ATCC. Cells were plated at a density (ranging from of 5 × 10^3 to 2 × 10^4 cells/well (100 μL vol)) resulting in sub-confluent monolayers to allow expansion during the 2 day growth assay. THP-1 cells were treated with 10 ng/ml phorbol 12-myristate 13-acetate (PMA) for 24 h to differentiate into macrophages before compound addition. For all other cells, compounds were added at 6 h post seeding to host cells containing plates (200 μL final volume, 0.2% DMSO) and incubated in culture medium at 37 °C supplemented with 5% CO2. At 44 h post compound addition (50 h total growth time), culture media was aspirated and replaced with Live Imaging solution (ThermoFisher) supplemented with 10 μg/mL Hoeschst 33342 (Sigma) for 20 min at 37 °C. […] Alternatively, plates fixed with 4% formaldehyde for 10 min and stained with 10 μg/mL Hoeschst 33342 (Sigma) for 20 min and imaged using a Cytation 3 multi-mode imager (DAPI, 10x objective, 4 images/well) and nuclei quantified using the Gen5 imager software (v3.08). Assays were repeated with two technical replicates within each of two independent biological replicates.
All statistical analyses were conducted using Prism 9 (GraphPad Software, Inc.). Dose–response inhibition curves for parasite and host cell toxicity screens (EC50 values) were generated using (Log(inhibitor) vs. normalized response—Variable slope) function. […] For multiple comparisons, two-way ANOVA analysis function using either Sidák’s multiple comparisons test or Dunnett’s multiple comparisons test was applied as indicated.

For `COc1ccc(NC(=O)N2CCCCN3[C@H](CN(C)C)[C@H](c4ccc(C#Cc5ccccc5)cc4)[C@@H]3C2)cc1` [BRD7929], the IC50 in series [1] was determined as 31 nM; in series [2], 207 nM; in series [3] (Table S4, M484I, read-out: IC50 (enzyme inhibition)), 135 nM. Also, the “Tg PheRS enzyme assay raw signal” value was 0.2010 (2×) and 0.1986 in series [1] (BRD7929 0.000001 μM); 0.1950 and 0.1940 and 0.1990 in series [1] (BRD7929 0.000010 μM); 0.1980 and 0.1900 and 0.1990 in series [1] (BRD7929 0.000100 μM); 0.1940 and 0.1790 and 0.1870 in series [1] (BRD7929 0.001000 μM); 0.1697 and 0.1750 and 0.1724 in series [1] (BRD7929 0.010000 μM); 0.1290 and 0.1332 and 0.1400 in series [1] (BRD7929 0.100000 μM). For the same compound, the “Tg PheRS enzyme assay raw signal” value in series [1] (BRD7929 1.000000 μM) was 0.1100 and 0.1180 and 0.1090; in series [1] (BRD7929 10.000000 μM), 0.0928 and 0.1144 and 0.1108; in series [1] (BRD7929 100.000000 μM), 0.1051 and 0.0940 and 0.1066. Moreover, the “enzyme assay readout (raw, malachite green, 620 nm)” value in series [1] (WT, BRD7929 100.000000 μM) is 0.1051 and 0.0940 and 0.1066. The “enzyme assay readout (raw)” value in series [3] (0.000050 μM) was 0.2597 and 0.2568 and 0.2561; in series [3] (0.000500 μM), 0.2555 and 0.2526 and 0.2544; in series [3] (0.005000 μM), 0.2503 and 0.2478 and 0.2487; in series [3] (0.050000 μM), 0.2472 and 0.2441 and 0.2410; in series [3] (0.500000 μM) it was 0.2388 and 0.2402 and 0.2378; in series [3] (5.000000 μM) it was 0.2341 and 0.2345 and 0.2337. Further, the “enzyme assay readout (raw)” value in series [3] (50.000000 μM) was 0.2266 and 0.2241. Also, the “plasma levels at increased dose” value in series [4] is on record as “did not lead to a proportional increase in plasma levels”.
In series [5], `COc1ccc(NC(=O)N2CCCCN3[C@H](CN(C)S(C)(=O)=O)[C@H](c4ccc(C#Cc5ccccc5)cc4)[C@@H]3C2)cc1` [BRD8494] registered an HFF fold selectivity of 571.4 fold.
